Values joined by “and” are separate entries in the source; they are usually repeats but may differ in a detail not shown here. Equal entries are not always repeated. Active and inactive are the calls of the source. No cut-off for these calls is given here.
Experiments:
[1] = test system: MCF7; experiment: Estrogenic activity in human MCF7 cells assessed as induction of cell proliferation at 0.001 to 1 nM after 6 days by fluorescence assay; assay type: functional, cell-based
[2] = target: T1, Estrogen receptor beta (Homo sapiens, UniProt Q92731)
Description: Binding affinity to ERbeta by fluorescence polarization-based competitive binding assay

[3] = target: T2, Estrogen receptor (Homo sapiens, UniProt P03372)
T2 sequence (P03372 whole entry): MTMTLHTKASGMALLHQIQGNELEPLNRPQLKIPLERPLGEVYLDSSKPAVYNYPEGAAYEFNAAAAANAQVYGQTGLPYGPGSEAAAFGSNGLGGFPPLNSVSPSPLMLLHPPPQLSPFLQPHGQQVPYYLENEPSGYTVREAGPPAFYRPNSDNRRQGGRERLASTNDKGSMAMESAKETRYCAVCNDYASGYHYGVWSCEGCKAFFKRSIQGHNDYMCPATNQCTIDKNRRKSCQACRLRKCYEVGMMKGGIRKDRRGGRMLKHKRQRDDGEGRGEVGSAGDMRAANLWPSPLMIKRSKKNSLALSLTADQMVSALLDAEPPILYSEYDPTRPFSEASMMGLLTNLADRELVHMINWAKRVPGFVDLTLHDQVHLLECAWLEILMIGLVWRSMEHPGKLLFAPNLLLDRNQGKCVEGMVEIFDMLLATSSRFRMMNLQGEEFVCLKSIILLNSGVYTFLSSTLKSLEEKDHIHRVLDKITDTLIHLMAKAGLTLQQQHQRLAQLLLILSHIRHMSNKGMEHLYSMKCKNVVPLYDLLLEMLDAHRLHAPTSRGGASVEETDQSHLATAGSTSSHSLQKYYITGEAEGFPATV
Description: Binding affinity to ERalpha by fluorescence polarization-based competitive binding assay

[4] = target: T2, Estrogen receptor; remark: listed apart in the source
Description: Transactivation of human ERalpha expressed in HEK293 cells after 18 hrs by luciferase reporter gene assay

[5] = target: T1, Estrogen receptor beta; remark: listed apart in the source
Description: Transactivation of human ERbeta expressed in HEK293 cells after 18 hrs by luciferase reporter gene assay

[6] = species on record: Homo sapiens; experiment: Selectivity ratio of EC50 for human ERbeta to EC50 for human ERalpha
[7] = test system: MCF7; experiment: Estrogenic activity in human MCF7 cells assessed as induction of cell proliferation at 100 nM after 6 days by fluorescence assay; assay type: functional, cell-based
[8] = test system: MCF7; experiment: Estrogenic activity in human MCF7 cells assessed as induction of cell proliferation at 1 nM after 6 days by fluorescence assay; assay type: functional, cell-based

T1 sequence (Q92731 whole entry): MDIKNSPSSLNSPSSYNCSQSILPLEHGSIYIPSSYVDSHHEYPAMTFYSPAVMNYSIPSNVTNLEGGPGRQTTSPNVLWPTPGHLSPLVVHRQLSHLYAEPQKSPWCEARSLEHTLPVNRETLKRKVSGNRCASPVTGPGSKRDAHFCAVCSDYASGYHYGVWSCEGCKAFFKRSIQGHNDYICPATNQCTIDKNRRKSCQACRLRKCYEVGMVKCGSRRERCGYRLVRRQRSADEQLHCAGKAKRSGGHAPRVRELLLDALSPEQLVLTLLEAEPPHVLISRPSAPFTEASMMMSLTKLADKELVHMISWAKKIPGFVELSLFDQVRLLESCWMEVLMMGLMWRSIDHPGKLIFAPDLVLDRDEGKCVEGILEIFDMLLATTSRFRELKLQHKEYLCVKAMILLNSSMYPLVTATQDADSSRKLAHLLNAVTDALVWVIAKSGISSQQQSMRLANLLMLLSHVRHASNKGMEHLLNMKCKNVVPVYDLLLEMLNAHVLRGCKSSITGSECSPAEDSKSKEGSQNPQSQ

SMILES	Activity [1]	IC50 [2] [µM]	IC50 [3] [µM]	EC50 [4] [µM]	EC50 [5]	Ratio EC50 [6]	Activity [7]	Activity [8]
CCOC(=O)C1(C(=O)OCC)Cc2ccc([C@]3(O)CC[C@H]4[C@@H]5CCc6cc(O)ccc6[C@H]5CC[C@@]43C)cc2C1	Active	1.08	0.492	0.0141	0.175 µM and 0.174 µM	13	Active	
CC(=O)C1(C(C)=O)Cc2ccc([C@]3(O)CC[C@H]4[C@@H]5CCc6cc(O)ccc6[C@H]5CC[C@@]43C)cc2C1		0.254	0.243	0.336	0.221 µM		Active	Active
Cc1ccc(S(=O)(=O)N2Cc3ccc([C@]4(O)CC[C@H]5[C@@H]6CCc7cc(O)ccc7[C@H]6CC[C@@]54C)cc3C2)cc1	Active	0.5			0.242 µM		Active	
C[C@]12CC[C@@H]3c4ccc(O)cc4CC[C@H]3[C@@H]1CC[C@@]2(O)c1ccc2c(c1)COC2	Active						Active	
CCOC(=O)C1(C(C)=O)Cc2ccc([C@]3(O)CC[C@H]4[C@@H]5CCc6cc(O)ccc6[C@H]5CC[C@@]43C)cc2C1 (some centres not stated)	Active	0.319			0.0346 µM		Active	
CCOC(=O)C1(C#N)Cc2ccc([C@]3(O)CC[C@H]4[C@@H]5CCc6cc(O)ccc6[C@H]5CC[C@@]43C)cc2C1 (some centres not stated)	Active	0.0536			0.0227 µM		Active	

— ChEMBL document CHEMBL1157750, “Synthesis and evaluation of 17alpha-arylestradiols as ligands for estrogen receptor alpha and beta” (J Med Chem, 2010)
